Measurements from patent US20250268894A1, “MACROCYCLE COMPOUNDS FOR THE TREATMENT OF CANCER” (Hoffmann-La Roche Inc., priority 2022, published 2025).

Experiments:
[1] = system: NCI-H358 cells (KRAS G12C); assay: Cell viability assay (Cell Counting Kit-8), KRAS G12C; format: cell-based; conditions: Homo sapiens, NCI-H358, 72 hrs
Procedure: (§1) The purpose of this cellular assay was to determine the effects of test compounds on the proliferation of human cancer cell lines NCI-H358 (ATCC-CRL5807) cells, AGS (ATCC-CRL-1739) cells, SW620 (ATCC-CCL-227) over a 3-day treatment period by quantifying the amount of NADPH present at endpoint using Cell Counting Kit-8.
(§2) Cells were seeded at 5,000 cells/well (NCI-H358), 2,000 cells/well (AGS)2,000 cells/well (SW620) in 96-well assay plates (Corning-3699) and incubated overnight. On the day of the assay, diluted compounds were then added in a final concentration of 0.5% DMSO. After 72 hrs incubation, a tenth of the volume of cell counting kit 8 (Dnjindo-CK04) was added into each well. Read the signal (OD450 minus OD650) using EnVision after 2 hrs incubation. IC50 was determined by fitting a 4-parameter sigmoidal concentration response model.

AGS cells (KRAS G12D) = assay: Cell viability assay (Cell Counting Kit-8), KRAS G12D; format: cell-based; conditions: Homo sapiens, 72 hrs
Procedure: as §1, §2

SW620 cells (KRAS G12V) = assay: Cell viability assay (Cell Counting Kit-8), KRAS G12V; format: cell-based; conditions: Homo sapiens, SW-620, SW620, 72 hrs
Procedure: as §1, §2

KRAS G12C-BRAF complex = KRAS G12C-BRAF complex (Homo sapiens (Human), UniProt P01116+P62937, G12C); assay: KRAS-BRAF with CYPA (500 nM) interaction assay (TR-FRET), G12C; format: biochemical
KRAS G12C-BRAF complex, sequence (P01116-2 other isoform, or with tags, fused parts or gaps G12C): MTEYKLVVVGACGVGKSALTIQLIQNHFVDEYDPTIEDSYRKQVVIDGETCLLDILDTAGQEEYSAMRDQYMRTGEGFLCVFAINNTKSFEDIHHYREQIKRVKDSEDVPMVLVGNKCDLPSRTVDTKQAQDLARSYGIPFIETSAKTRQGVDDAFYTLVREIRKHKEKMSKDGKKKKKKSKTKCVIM
KRAS G12C-BRAF complex, sequence (P62937 whole entry): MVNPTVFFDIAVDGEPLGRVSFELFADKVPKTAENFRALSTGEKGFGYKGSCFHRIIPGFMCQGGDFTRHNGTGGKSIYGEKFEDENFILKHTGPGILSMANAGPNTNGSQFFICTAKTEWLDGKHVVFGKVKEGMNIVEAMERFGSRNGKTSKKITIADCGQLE
Procedure: (§3) Kras-BRAF with CYPA (500 nM) Interaction Assay In this example, TR-FRET was also used to measure the compound or compound-CYPA dependent disruption of the KRAS G12C-BRAF complex. This protocol was also used to measure disruption of KRAS G12D or KRAS G12V binding to BRAF by a compound of the invention, respectively. […] Compound was present in plate wells as a 16-point 3-fold dilution series starting at a final concentration of 10 μM and incubated for 3 hours. […] TR-FRET signal was read on a […] microplate reader (Ex320 nm, Em 665/615 nm). Compounds that facilitate disruption of the KRAS-BRAF complex were identified as those eliciting a decrease in the TR-FRET ratio relative to DMSO control wells.

KRAS G12D-BRAF complex = KRAS G12D-BRAF complex (Homo sapiens (Human), UniProt P01116+P62937, G12D); assay: KRAS-BRAF with CYPA (500 nM) interaction assay (TR-FRET), G12D; format: biochemical
KRAS G12D-BRAF complex, sequence (P01116-2 other isoform, or with tags, fused parts or gaps G12D): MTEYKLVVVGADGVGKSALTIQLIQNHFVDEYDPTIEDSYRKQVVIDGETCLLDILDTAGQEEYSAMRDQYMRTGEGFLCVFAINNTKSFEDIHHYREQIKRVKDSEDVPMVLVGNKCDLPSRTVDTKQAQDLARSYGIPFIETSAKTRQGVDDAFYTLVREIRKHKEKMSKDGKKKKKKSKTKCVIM
KRAS G12D-BRAF complex, sequence (P62937 whole entry): as the sequence (P62937 whole entry) above
Procedure: as §3

KRAS G12V-BRAF complex = KRAS G12V-BRAF complex (Homo sapiens (Human), UniProt P01116+P62937, G12V); assay: KRAS-BRAF with CYPA (500 nM) interaction assay (TR-FRET), G12V; format: biochemical
KRAS G12V-BRAF complex, sequence (P01116-2 other isoform, or with tags, fused parts or gaps G12V): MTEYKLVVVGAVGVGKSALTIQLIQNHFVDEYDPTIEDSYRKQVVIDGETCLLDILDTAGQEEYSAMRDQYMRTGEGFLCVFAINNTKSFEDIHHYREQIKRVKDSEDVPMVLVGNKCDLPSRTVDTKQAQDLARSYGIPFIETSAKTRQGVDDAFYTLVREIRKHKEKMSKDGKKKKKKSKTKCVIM
KRAS G12V-BRAF complex, sequence (P62937 whole entry): as the sequence (P62937 whole entry) above
Procedure: as §3

[2] = system: phosphorylation of ERK, KRAS G12C in NCI-H358 cells; assay: pERK inhibition assay, KRAS G12C in NCI-H358 cells; format: cell-based, human; conditions: Homo sapiens, NCI-H358, 4 hours
Procedure: (§4) This assay is to measure the ability of test compounds in inhibiting the phosphorylation of ERK, the downstream signaling of KRAS G12C in NCI-H358 cells, KRAS G12D in AGS cells, and KRAS G12V in SW620. NCI-H358 (ATCC-CRL5807) cells, AGS (ATCC-CRL-1739) cells, SW620 (ATCC-CCL-227) cells were all grown and maintained using RPMI-1640 medium (Thermo Fisher Scientific) with 10% fetal bovine serum and 1% penicillin/streptomycin. On the day prior to compound addition, cells were plated in tissue culture-treated 96 well plates (Corning-3699) at a density of 30,000 cell/well, 20,000 cell/well, 30,000 cell/well for NCI-H358, AGS and SW620 respectively, and allowed for attachment overnight. Diluted compounds were then added in a final concentration of 0.5% DMSO. After 4 hours of incubation, the medium was removed, 100 μL of 4% formaldehyde was added, and the assay plates were incubated at room temperature for 20 minutes. The plates were then washed once with phosphate buffered saline (PBS), and permeabilized with 100 μL of chilled methanol for 10 minutes. Non-specific antibody binding to the plates was blocked using 50 μL 1X BSA blocking buffer (Thermo-37520, 10-fold dilution by Phosphate-Buffered Saline Tween (PBST) for at least 1 hour at room temperature.
(§5) The amount of phosphor-ERK was determined using an antibody specific for phosphorylated form of ERK. Primary antibody (PERK, CST-4370, Cell Signaling Technology) was diluted 1:300 in blocking buffer, with 50 μL aliquoted to each well, and incubated overnight at 4° C. Cells was washed five times for 5 minutes with PBST. Secondary antibody (HRP-linked anti-rabbit IgG, CST-7074, Cell Signaling Technology) was diluted 1:1000 in blocking buffer, and 50 μL was added to each well and incubated 1-2 hrs at room temperature. Cells was washed […] for 5 minutes with PBST, 100 μL TMB ELISA substrate (abcam-ab171523) were added and gently shake for 20 minutes. 50 μL stop solution (abcam-ab171529) were added, and then read the signal (OD450) by EnVision.
(§6) IC50 was determined by fitting a 4-parameter sigmoidal concentration response model.

[3] = system: phosphorylation of ERK, KRAS G12D in AGS cells; assay: pERK inhibition assay, KRAS G12D in AGS cells; format: cell-based, human; conditions: Homo sapiens, 4 hours
Procedure: as §4, §5, §6

[4] = system: phosphorylation of ERK, KRAS G12V in SW620 cells; assay: pERK inhibition assay, KRAS G12V in SW620; format: cell-based, human; conditions: Homo sapiens, SW-620, SW620, 4 hours
Procedure: as §4, §5, §6

| SMILES | IC50 [1] [nM] | IC50 (AGS cells (KRAS G12D)) [nM] | IC50 (SW620 cells (KRAS G12V)) [nM] | IC50 (KRAS G12C-BRAF complex) [nM] | IC50 (KRAS G12D-BRAF complex) [nM] | IC50 (KRAS G12V-BRAF complex) [nM] | IC50 [2] [nM] | IC50 [3] [nM] | IC50 [4] [nM] |
| --- | --- | --- | --- | --- | --- | --- | --- | --- | --- |
| CO[C@@H](C)c1ncc(N2CCN(C)CC2)cc1-c1c2c3cc(c(F)cc3n1CC(F)(F)F)-c1csc(n1)C[C@H](NC(=O)[C@H](C(C)C)N(C)C(=O)N1CC(N(C)C)C1)C(=O)N1CCC[C@H](N1)C(=O)OCC(C)(C)C2 (atropisomer, axis not shown; (M)) [Example 1, 3-(dimethylamino)-N-[(1S)-1-[[(7S,13S)-24-fluoro-(20M)-20-[2-[(1S)-1-methoxyethyl]-5-(4-methylpiperazin-1-yl)-3-pyridyl]-17,17-dimethyl-8,14-dioxo-21-(2,2,2-trifluoroethyl)-15-oxa-4-thia-9,21,27,28-tetrazapentacyclo[17.5.2.1^2,5.1^9,13.0^22,26]octacosa-1(25),2,5 (28),19,22 (26),23-hexaen-7-yl]carbamoyl]-2-methyl-propyl]-N-methyl-azetidine-1-carboxamide] | 2 | 13 | 1 | 46 | 147 | 70 | 1 | 2 | 1 |
| CO[C@@H](C)c1ncc(N2CCOCC2)cc1-c1c2c3cc(c(F)cc3n1CC(F)(F)F)-c1csc(n1)C[C@H](NC(=O)[C@H](C(C)C)N(C)C(=O)N1CC(N(C)C)C1)C(=O)N1CCC[C@H](N1)C(=O)OCC(C)(C)C2 (atropisomer, axis not shown; (M)) [Example 4, 3-(dimethylamino)-N-[(1S)-1-[[(7S,13S)-24-fluoro-(20M)-20-[2-[(1S)-1-methoxyethyl]-5-morpholino-3-pyridyl]-17,17-dimethyl-8,14-dioxo-21-(2,2,2-trifluoroethyl)-15-oxa-4-thia-9,21,27,28-tetrazapentacyclo[17.5.2.1^2,5.1^9,13.0^22,26]octacosa-1 (25),2,5 (28),19,22 (26),23-hexaen-7-yl]carbamoyl]-2-methyl-propyl]-N-methyl-azetidine-1-carboxamide] | 3 | 17 | 1 | – | – | – | 1 | 3 | 1 |
| CCn1c(-c2cc(N3CCOCC3)cnc2[C@H](C)OC)c2c3cc(c(F)cc31)-c1csc(n1)C[C@H](NC(=O)[C@H](C(C)C)N(C)C(=O)N1CC(F)(F)C1)C(=O)N1CCC[C@H](N1)C(=O)OCC(C)(C)C2 (atropisomer, axis not shown; (M)) [Example 7, N-[(1S)-1-[[(7S,13S)-21-ethyl-24-fluoro-(20M)-20-[2-[(1S)-1-methoxyethyl]-5-morpholino-3-pyridyl]-17,17-dimethyl-8,14-dioxo-15-oxa-4-thia-9,21,27,28-tetrazapentacyclo[17.5.2.1^2,5.1^9,13.0^22,26]octacosa-1 (25),2,5 (28),19,22 (26),23-hexaen-7-yl]carbamoyl]-2-methyl-propyl]-3,3-difluoro-N-methyl-azetidine-1-carboxamide] | – | – | – | 95 | 472 | 611 | – | – | – |
| CCn1c(-c2cc(N3CCOCC3)cnc2[C@H](C)OC)c2c3cc(c(F)cc31)-c1csc(n1)C[C@H](NC(=O)[C@H](C(C)C)N1CCN(C)C1=O)C(=O)N1CCC[C@H](N1)C(=O)OCC(C)(C)C2 (atropisomer, axis not shown; (M)) [Example 8, (2S)-N-[(7S,13S)-21-ethyl-24-fluoro-(20M)-20-[2-[(1S)-1-methoxyethyl]-5-morpholino-3-pyridyl]-17,17-dimethyl-8,14-dioxo-15-oxa-4-thia-9,21,27,28-tetrazapentacyclo[17.5.2.1^2,5.1^9,13.0^22,26]octacosa-1 (25),2,5 (28),19,22 (26),23-hexaen-7-yl]-3-methyl-2-(3-methyl-2-oxo-imidazolidin-1-yl) butanamide] | 12 | 57 | 7 | – | – | – | 24 | 24 | 5 |
| CCn1c(-c2cc(N3CCN(CC(F)(F)F)CC3)cnc2[C@H](C)OC)c2c3cc(c(F)cc31)-c1csc(n1)C[C@H](NC(=O)[C@H](C(C)C)N(C)C(=O)N1CCOCC1)C(=O)N1CCC[C@H](N1)C(=O)OCC(C)(C)C2 (atropisomer, axis not shown; (M)) [Example 9, N-[(1S)-1-[[(7S,13S)-21-ethyl-24-fluoro-(20M)-20-[2-[(1S)-1-methoxyethyl]-5-[4-(2,2,2-trifluoroethyl)piperazin-1-yl]-3-pyridyl]-17,17-dimethyl-8,14-dioxo-15-oxa-4-thia-9,21,27,28-tetrazapentacyclo[17.5.2.1^2,5.1^9,13.0^22,26]octacosa-1 (25),2,5 (28),19,22 (26),23-hexaen-7-yl]carbamoyl]-2-methyl-propyl]-N-methyl-morpholine-4-carboxamide] | 24 | 91 | 14 | 49 | 225 | 124 | 24 | 23 | 9 |
| CCn1c(-c2cc(N3CCN(C)CC3)cnc2[C@H](C)OC)c2c3cc(c(F)cc31)-c1csc(n1)C[C@H](NC(=O)[C@H](C(C)C)N(C)C(=O)N1CCOCC1)C(=O)N1CCC[C@H](N1)C(=O)OCC(C)(C)C2 (atropisomer, axis not shown; (M)) [Example 10, N-[(1S)-1-[[(7S,13S)-21-ethyl-24-fluoro-(20M)-20-[2-[(1S)-1-methoxyethyl]-5-(4-methylpiperazin-1-yl)-3-pyridyl]-17,17-dimethyl-8,14-dioxo-15-oxa-4-thia-9,21,27,28-tetrazapentacyclo[17.5.2.1^2,5.1^9,13.0^22,26]octacosa-1 (25),2,5 (28),19,22 (26),23-hexaen-7-yl]carbamoyl]-2-methyl-propyl]-N-methyl-morpholine-4-carboxamide] | 6 | 40 | 6 | 61 | 186 | 149 | 14 | 8 | 6 |
